Patent publication US20090227507A1, “Angiotensin (1-7) Dosage Forms and Uses Thereof” (UNIVERSITY OF SOUTHERN CALIFORNIA, priority 2008, published 2009)

What was measured:
Format in all cases: in vivo, human
[1] = Vital signs (blood pressure, pulse rate, respiration rate, oral temperature) in healthy men; details: for oral body temperature, Subject 042 / oral body temperature, Subject 046 / oral body temperature, Subject 053 / oral body temperature, Subject 055: 300 μg/kg
Protocol: Safety assessments during the study period included vital sign measurement (systolic [SBP] and diastolic [DBP] blood pressure, heart rate [HR], respiratory rate [RR] in the sitting position, and oral temperature), clinical chemistry, hematology, urinalysis, 12-lead electrocardiogram (ECG) in the supine position, and AE monitoring. Clinical chemistry/hematology samples were drawn within a 30-minute period prior to dosing on selected dosing days.
Vital signs were measured immediately prior to dosing, every hour for the first 6 hours post-dosing, then every 3 hours up to 12 hours post-dosing.
Vital signs, including SBP, DBP, RR, and HR were done at Screening, on each day immediately before and at 1, 3, and 6 hours after each SC injection, and at 24 hours after the last injection on Day 7. On Day 1, they were taken every hour for the first 6 hours, then every 3 hours up to 12 hours after the dose.

[2] = system: CD4 cells in peripheral blood; test: Flow cytometry of peripheral blood, CD4 lymphocytes; USB003 SC once daily for 7 days in healthy men; parameters: key to Subjects with shift, Absolute CD4, N-L (normal to low) / Subjects with shift, Absolute CD4, N-H (normal to high) / Subjects with shift, Absolute CD4, H-N (high to normal) / Subjects with shift, Absolute CD4, L-N (low to normal): — signifies subject with no shift from baseline; details: for CD4, Absolute, Mean at Baseline: Baseline (Day 1)
Protocol: • Single-center, randomized, double-blind, placebo-controlled, 2 cohort dose-escalation trial of once daily dosing over a 7-day period (7 doses total): • Cohort 1: 2 subjects treated with placebo and 8 subjects treated with 200 μg/kg USB003 (A(1-7)) • Cohort 2: 2 subjects treated with placebo and 8 subjects treated with 300 μg/kg USB003 • For each cohort, there was a Screening Period, Treatment Phase, Follow-up Period, and Study Termination or Early Withdrawal Day. Subjects were confined to the study unit during the Treatment Phase. • Cohort 2 was treated approximately 1 week after completion of the Treatment Phase for Cohort 1 to allow time for the assessment of safety and tolerability in the first cohort.
Pharmacological Effect: The following evaluations (under efficacy and safety in the protocol) were performed: • Effects on the number of mature blood cells: • 1. CBC (with differential), platelet count, reticulocyte count. • Effects on early hematopoietic progenitor cells and mature lymphocyte subsets in the periphery: • 1. Flow cytometry to evaluate frequency of peripheral blood progenitor cells (eg, CD34^+) and lymphocyte subsets (eg, CD3, CD4, CD8) in peripheral blood. • 2. Collection of blood for later possible culture for progenitor cells (eg, colony forming units-granulocyte/macrophage [CFU-GM]) to evaluate potential effects on CD34^+ hematopoietic progenitor cells in peripheral blood. • 3.
The effect of USB003 on the number of mature blood cells was assessed by the complete blood count with differential, platelet and reticulocyte counts. The effects on early hematopoietic progenitor cells and mature lymphocyte subsets in the periphery were assessed by flow cytometry. In addition, blood was collected and processed to enable culture of progenitors at a later time.
Red blood cell (RBC) count, RBC indices, white blood cell count (WBC) with differential, reticulocyte count, platelet count, hemoglobin (Hb), hematocrit (Hct), plasma hemoglobin, peripheral flow cytometry, including CD34^+, flow cytometry for enumeration of CD3, CD4, and CD8 lymphocytes, and culture for progenitor cells in peripheral blood including colony-forming units-granulocyte/macrophage (CFU-GM).

[3] = Physical examination in healthy men; details: all dose groups; baseline (Day 1) to Day 20
Description: On Day −1, subjects who met the eligibility criteria underwent a PE, vital sign measurements, and had samples drawn to evaluate clinical laboratory parameters. On Study Days 1 through 7 for each cohort, subjects received a single SC injection of USB003 at the assigned dose level or placebo. Subjects were kept in the clinic under observation for the entire Day −1 to Day 8 period. Subjects were discharged from the clinic on the morning of Day 8 after all scheduled procedures and a 24-hour urine collection had been completed. Subjects were scheduled to return to the clinic on Days 11, 14, 17, and 20 for hematology measurements and selected safety assessments. Subjects were to be released from the study following a post-study PE on Day 20.
On Day 20 of the study, subjects were to have returned to the clinic for the post-study check and PE. Blood samples for hematology and plasma USB003 were also drawn.
Laboratory measurements were conducted by a local clinical laboratory.

[4] = approximately 6 hours after Day 3 study medication

Asp-Arg-Val-Tyr-Ile-His-Pro [USB003]
change from baseline in mean body temperatures ([1]; 300 μg/kg dose group compared to 200 μg/kg, especially 6-hour post-dose, Study Day 3): clearly notable increase
oral body temperature, Subject 042 ([1]; Day 1, 4-hour post-dose): 37.8 °C
oral body temperature, Subject 042 ([1]; Day 1, 9-hour post-dose): 38.1 °C
oral body temperature, Subject 042 ([1]; Day 1, one hour after first dose): 37.4 °C
oral body temperature, Subject 042 ([1]; Day 2, 6-hour-post-dose): 38.7 °C
oral body temperature, Subject 042 ([1]; Day 2 pre-dose): 37.4 °C
oral body temperature, Subject 046 ([1]; Day 2 pre-dose): 35.9 °C
oral body temperature, Subject 046 ([1]; Day 3, 6-hour post-dose): 37.9 °C
oral body temperature, Subject 046 ([1]; Day 4 pre-dose): 36.8 °C
oral body temperature, Subject 053 ([1]; Day 4 pre-dose): 36.4 °C
oral body temperature, Subject 055 ([1]; Day 4 pre-dose): 37.1 °C
oral body temperature, Subject 053 ([1]; Day 7 pre-dose): 37.0 °C
oral body temperature, Subject 042 ([1]; Day 8): 36.9 °C
oral body temperature, Subject 053 [1, 4]: 37.8 °C
oral body temperature, Subject 055 [1, 4]: 38.0 °C
oral body temperature, Subject 053 ([1]; approximately 6 hours after Day 6 study medication): 37.9 °C
oral body temperature, Subject 046 ([1]; approximately 7 hours and 45 minutes after first dosing): 37.8 °C
oral body temperature, Subject 046 ([1]; approximately 14 hours after the first dose): 38.0 °C
oral body temperature, Subject 046 ([1]; one hour after first dose): 37.3 °C
changes from baseline for the mean RR ([1]; all measured time points): no clinically meaningful changes
mean change in pulse rate ([1]; by 3-hour post-dose in all treatment groups, continuing in the USB003 groups at last vital sign of the day): mildly notable increase
change in mean SBP and DBP compared to baseline ([1]; no apparent difference in dose groups): mild decrease
CD4, Absolute, Mean at Baseline ([2]; 200 μg/kg): 1122.6 cells/μL
Subjects with shift, Absolute CD4, H-N (high to normal) ([2]; 200 μg/kg, Baseline to Day 8): 1
Subjects with shift, Absolute CD4, L-N (low to normal) ([2]; 200 μg/kg, Baseline to Day 8): —
Subjects with shift, Absolute CD4, N-H (normal to high) ([2]; 200 μg/kg, Baseline to Day 8): —
Subjects with shift, Absolute CD4, N-L (normal to low) ([2]; 200 μg/kg, Baseline to Day 8): —
Subjects with shift, Absolute CD4, H-N (high to normal) ([2]; 200 μg/kg, Baseline to Day 20): 1
Subjects with shift, Absolute CD4, L-N (low to normal) ([2]; 200 μg/kg, Baseline to Day 20): —
Subjects with shift, Absolute CD4, N-H (normal to high) ([2]; 200 μg/kg, Baseline to Day 20): —
Subjects with shift, Absolute CD4, N-L (normal to low) ([2]; 200 μg/kg, Baseline to Day 20): —
CD4, Absolute, Mean Change from Baseline ([2]; 200 μg/kg, Day 3): −88.0 cells/μL
CD4, Absolute, Mean Change from Baseline ([2]; 200 μg/kg, Day 5): 39.5 cells/μL
CD4, Absolute, Mean Change from Baseline ([2]; 200 μg/kg, Day 7): 53.6 cells/μL
CD4, Absolute, Mean Change from Baseline ([2]; 200 μg/kg, Day 8): −24.0 cells/μL
CD4, Absolute, Mean Change from Baseline ([2]; 200 μg/kg, Day 11): 82.5 cells/μL
CD4, Absolute, Mean Change from Baseline ([2]; 200 μg/kg, Day 14): 12.1 cells/μL
CD4, Absolute, Mean Change from Baseline ([2]; 200 μg/kg, Day 17): −70.5 cells/μL
CD4, Absolute, Mean Change from Baseline ([2]; 200 μg/kg, Day 20): −58.0 cells/μL
CD4, Absolute, Mean at Baseline ([2]; 300 μg/kg): 734.4 cells/μL
Subjects with shift, Absolute CD4, H-N (high to normal) ([2]; 300 μg/kg, Baseline to Day 8): —
Subjects with shift, Absolute CD4, L-N (low to normal) ([2]; 300 μg/kg, Baseline to Day 8): 1
Subjects with shift, Absolute CD4, N-H (normal to high) ([2]; 300 μg/kg, Baseline to Day 8): —
Subjects with shift, Absolute CD4, N-L (normal to low) ([2]; 300 μg/kg, Baseline to Day 8): —
Subjects with shift, Absolute CD4, H-N (high to normal) ([2]; 300 μg/kg, Baseline to Day 20): —
Subjects with shift, Absolute CD4, L-N (low to normal) ([2]; 300 μg/kg, Baseline to Day 20): —
Subjects with shift, Absolute CD4, N-H (normal to high) ([2]; 300 μg/kg, Baseline to Day 20): —
Subjects with shift, Absolute CD4, N-L (normal to low) ([2]; 300 μg/kg, Baseline to Day 20): 1
CD4, Absolute, Mean Change from Baseline ([2]; 300 μg/kg, Day 3): 109.6 cells/μL
CD4, Absolute, Mean Change from Baseline ([2]; 300 μg/kg, Day 5): 108.1 cells/μL
CD4, Absolute, Mean Change from Baseline ([2]; 300 μg/kg, Day 7): 129.3 cells/μL
CD4, Absolute, Mean Change from Baseline ([2]; 300 μg/kg, Day 8): 31.1 cells/μL
CD4, Absolute, Mean Change from Baseline ([2]; 300 μg/kg, Day 11): −29.3 cells/μL
CD4, Absolute, Mean Change from Baseline ([2]; 300 μg/kg, Day 14): 9.7 cells/μL
CD4, Absolute, Mean Change from Baseline ([2]; 300 μg/kg, Day 17): −40.0 cells/μL
CD4, Absolute, Mean Change from Baseline ([2]; 300 μg/kg, Day 20): 48.9 cells/μL
PE findings [3]: no changes from baseline
